# Measured values taken from patent publication US20130315920A1, “Cross Protective Epitopes of Aspergillus Fumigatus and Candida Albicans” (Cell Medica Limited, priority 2010, published 2013).
# Experiments:
# [1] = tested on: A. fumigatus cell extract; experiment: Peptide-specific T-cell clones stimulated with DC incubated with A. fumigatus cell extract (IFN-γ); format: cell-based, Aspergillus fumigatus; conditions: extract 20 μg/ml, DC incubated 24 h
# Procedure: (§1) T-cell cloning was performed as described in below. T-cell clones were stimulated either with mature peptide-pulsed (2.5 μg/ml) or Crf1 mRNA-transfected DC, immature DC incubated for 24 h with A. fumigatus cell extract (20 μg/ml) in the presence of cytokine maturation cocktail or immature DC incubated for 24 h with inactivated A. fumigatus or C. albicans fungus (multiplicity of infection 3) in a R:S ratio of 5:1.
# (§2) Fungal extracts were generated as described^48 and protein content was measured by Bradford protein assay (Perbio Science) according to the manufacturers' instructions. For inactivated fungus Aspergillus conidia were inoculated in growth medium^49 and cultured for 0, 4, 8 or 12 h. Candida species were cultured for 24 h. Fungi were inactivated with 70% ethanol. Ethanol-inactivated fungi and extracts were validated for sterility by subculturing on Sabouraud dextrose agar.
# C. albicans = experiment: Peptide-specific T-cell clones stimulated with inactivated C. albicans yeast; format: cell-based, Candida albicans
# Description: A. fumigatus Crf1 p41-specific T-cell clones are cross-reactive to C. albicans and can be activated by different clinical isolates of both fungi. (a) All A. fumigatus Crf1 p41-specific T-cell clones from different donors respond to stimulation with inactivated C. albicans yeast. IFN-γ values are given after subtraction of the negative control. Shown is 1 clone per antigen and donor (representative experiments, n≧3). (b) A. fumigatus Crf1 p41-specific T-cell clones respond to different inactivated clinical isolates of germinating A. fumigatus conidia and C. albicans yeast.
# as §1, §2
# HLA-DRB1*03 = experiment: HLA restriction with peptide-pulsed partially matched LCL (IFN-γ ELISA); format: cell-based, human; conditions: 10^−3 to 1 ug/ml peptide
# Procedure: (§3) To evaluate the utility of the Crf1 p41 epitope for potential clinical application, we defined the HLA restriction of Crf1 p41-specific CD4^+ T clones from different donors by stimulation with peptide-pulsed partially matched LCLs. […] As presentation of the Crf1 p41 peptide could also be mediated by other MHC class II alleles, we verified the HLA restriction by stimulation of PBMC from additional donors.
# (§4) HLA restriction was analyzed with partially matched allogeneic EBV-lymphoblastoid cell lines (LCL) (provided by Patricia Comoli and Inge Jedema) pulsed with 10^−3 to 1 ug/ml peptide using IFN-γ ELISA.
# HLA-DRB1*13 = experiment: as above; format: cell-based, human; conditions: for Presentation / binding by HLA-DRB1*13: 10^−3 to 1 ug/ml peptide
# Procedure: as §3, §4
# PBMC = experiment: In vitro expansion of Crf1 p41-specific T-cell lines from PBMC; format: cell-based, human
# Procedure: Cross-reactive Crf1 p41-specific T-cells show a diverse T-cell receptor (TCR) Vβ repertoire, multiple MHC class II restriction and high proliferative capacity. (a) The TCR Vβ repertoire of p41-specific CD4^+ T-cell clones is divers in different donors. TCR chains were determined by flowcytometry, PCR and/or nucleotide sequence analysis. *TCRs differ on the level of nucleotide sequence. Nomenclature is according to Wei et al^53. (b) The Crf1 p41 epitope can be presented by HLA-DRB1*03, 04 and 13 and allows cross-recognition between HLA-DRB1*03 and 13. The HLA restriction of Crf1 p41-specific T-cell clones from 5 different donors was determined by stimulation with peptide-pulsed unmatched or partially matched LCL. IFN-γ values are given after subtraction of the negative control. (c) Crf1 p41-specific T-cells are not terminally differentiated and can be rapidly expanded in vitro. […] T-cells were restimulated with autologous peptide-pulsed monocytes on day 7 and culture medium was supplemented with IL-2, IL-7 and IL-15 (representative experiments, n≧3).
# For T-cell expansion, 1×10^7 PBMC were stimulated with 5 μg/ml peptide in the presence of 5 U/ml IL-2. On d7, T-cells were restimulated with autologous peptide-pulsed monocytes at a R:S ratio of 5:1 and 10 ng/ml IL-7 and IL-15 (R&D systems) were supplemented every other day until d14.
# The TCR Vβ repertoire was analyzed flowcytometrically (IOTest Beta Mark Kit, Beckman Coulter), by PCR^43 and sequence analysis^44. A PE-conjugated Crf1 p41-specific HLA-DRB1*0401 MHC class II tetramer was used according to the manufacturers' instructions (Beckman Coulter).
# [2] = tested on: PBMC from additional donors; experiment: Verification of HLA restriction by stimulation of PBMC from additional donors; format: cell-based, human; conditions: data not shown
# Description: as §3
# [3] = tested on: DC transfected with Crf1 mRNA; experiment: Peptide-specific T-cell clones stimulated with Crf1 mRNA-transfected DC (IFN-γ); format: cell-based, human
# Procedure: as §1
# For T-cell cloning 6×10^7 PBMC were stimulated overnight with 5 μg/ml peptide and 1 μg/ml CD40 antibody (HB14, Miltenyi Biotec). Cells were labelled with anti-CD154^+ microbeads and isolated by magnetic cell separation according to the manufacturers' instructions (Miltenyi Biotec). Selected cells were cultured with γ-irradiated autologous PBMC (ratio 1:50) and cytokines were supplemented as described above. On d14, T-cell clones were generated by limiting dilution in 96-well plates and expanded using the rapid expansion protocol previously described^50.
# A. fumigatus Crf1 cDNA was cloned into the pGEM4Z vector (provided by Kris Thielemans) and in vitro transcribed using mMESSAGE mMACHINE T Ultra Kit (Ambion) according to the manufacturers' instructions. Crf1 was fused to the N-terminal domain of the invariant chain to enhance antigen presentation by MHC class II^51,52. Maturated DC were electroporated with 15 μg mRNA at 300V and 150 μF using the EQUIBIO EasyjecT Plus® apparatus (EQUIBIO) in serum-free medium (OptiMEM, Gibco)^41.
# inactivated A. fumigatus = experiment: Peptide-specific T-cell clones stimulated with DC incubated with inactivated A. fumigatus (resting conidia, germinating conidia, hyphae); format: cell-based, Aspergillus fumigatus
# Description: Response of Crf1 peptide-specific T-cell clones to stimulation with native A. fumigatus antigen. (a) T-cell clones from different donors specific for p1, p22, p27, p41 and p59 that responded to stimulation with Crf1 mRNA-transfected DC were stimulated with A. fumigatus cell extract or (b) inactivated germinating A. fumigatus conidia. IFN-γ values are given after subtraction of the negative control. Shown is 1 clone per antigen and donor (representative experiments, n≧3). (c) Crf1 p41-specific T-cell clones respond to stimulation with DC incubated overnight with germinating A. fumigatus conidia or hyphae but not to resting conidia. T cell clones were stimulated with A. fumigatus inactivated 0 h (resting conidia), 6 h (germinating conidia) or 12 h (hyphae) after incubation in growth medium.
# as §1
# Fungal extracts were generated as described^48 and protein content was measured by Bradford protein assay (Perbio Science) according to the manufacturers' instructions. […]
sequence,measurement,setting,value
"HTYTIDWTKDAVTWS (Peptide found in the Crf1 protein of Aspergillus fumigatus) [p41, Crf1 aa 161-175]",Response of peptide-specific T-cell clones to A. fumigatus extract,[1],All Crf1 p41-specific T-cell clones of all 5 donors
same,Cross-reactivity with different clinical isolates of A. fumigatus and C. albicans,C. albicans; clinical isolates,could further confirm this cross-reactivity of the Crf1 p41 epitope
same,Cross-reactivity of peptide-specific T-cell clones to C. albicans,"C. albicans; inactivated C. albicans yeast, established strain",All p41-specific T-cell clones of all donors recognized and responded to C. albicans
same,Presentation / binding by HLA-DRB1*03,HLA-DRB1*03,"presentation of the Crf1 p41 is mediated by HLA-DRB1*03, 04 and 13"
same,Presentation / binding by HLA-DRB1*03,HLA-DRB1*03; listed as HTYTIDWTKDAVTWS,"has been shown to bind to HLA-DRB1*03, HLA-DRB1*13 and HLA-DRB1*04"
same,Cross-recognition between HLA-DRB1*03 and 13,HLA-DRB1*13,in some instances DRB1*03-restricted TCRs might be able to recognize p41 peptide presented by DRB1*13 and vice versa
same,Presentation / binding by HLA-DRB1*13,HLA-DRB1*13,"presentation of the Crf1 p41 is mediated by HLA-DRB1*03, 04 and 13"
same,Presentation / binding by HLA-DRB1*13,HLA-DRB1*13; listed as HTYTIDWTKDAVTWS,"has been shown to bind to HLA-DRB1*03, HLA-DRB1*13 and HLA-DRB1*04"
same,Frequency of antigen-specific cells by HLA-DRB1*04 restricted tetramer (median),PBMC; after 14 days expansion,50.6%
same,Frequency of antigen-specific cells by HLA-DRB1*04 restricted tetramer (range),PBMC; after 14 days expansion,42-63%
same,Cell number after expansion (median),PBMC; from 10^7 PBMC within 14 days,3.5×10^7 cells
same,Cell number after expansion (range),PBMC; from 10^7 PBMC within 14 days,3−4.9×10^7 cells
same,Cytokine production and proliferation of expanded T-cell lines,PBMC; upon antigen stimulation,produced high amounts of TH1 cytokines and proliferated upon antigen stimulation
same,Reaction of PBMC to the epitope,"[2]; 5 donors lacking HLA-DRB1*03, 04 and 13","all 5 donors lacking HLA-DRB1*03, 04 and 13 MHC class II alleles did not"
same,Reaction of PBMC to the epitope,"[2]; HLA-DRB1*03, 04 and 13 donors","All HLA-DRB1*03, 04 and 13 donors reacted to the Crf1 p41 epitope"
same,Response of peptide-specific CD4+ T-cell clones to endogenously processed antigen,[3]; all donors,All generated p41-specific CD4^+ T-cell clones were activated readily
same,Number of T-cell clones reacting to Crf1 mRNA-transfected DC/number of peptide-specific T-cell clones,[3]; donor 1,11/11
same,Number of T-cell clones reacting to Crf1 mRNA-transfected DC/number of peptide-specific T-cell clones,[3]; donor 2,16/16
same,Number of T-cell clones reacting to Crf1 mRNA-transfected DC/number of peptide-specific T-cell clones,[3]; donor 4,2/2
same,Number of T-cell clones reacting to Crf1 mRNA-transfected DC/number of peptide-specific T-cell clones,[3]; donor 7,4/4
same,Number of T-cell clones reacting to Crf1 mRNA-transfected DC/number of peptide-specific T-cell clones,[3]; donor 10,3/3
same,Activation of peptide-specific T-cell clones by resting conidia,inactivated A. fumigatus; A. fumigatus inactivated 0 h (resting conidia),resting conidia were not able to activate peptide-specific T-cell clones
same,Activation of peptide-specific T-cell clones by germinating conidia and hyphae,inactivated A. fumigatus; A. fumigatus inactivated 6 h (germinating conidia) or 12 h (hyphae),germinating conidia induced similar T-cell responses as outgrown hyphae
